Experimental data taken from ChEMBL document CHEMBL4321854, “Discovery of a First-in-Class Mitogen-Activated Protein Kinase Kinase 1/2 Degrader” (J Med Chem, 2019).
Calls of active or inactive are those of the source. The rule behind the calls is not given here.

Tests used:
[1] = biological target: T1, von Hippel-Lindau disease tumor suppressor/Dual specificity mitogen-activated protein kinase kinase 2/Dual specificity mitogen-activated protein kinase kinase 1 (Homo sapiens) (UniProt P36507+Q02750+P40337); experiment: Protac activity against VHL/MEK1/2 in human HT-29 cells harboring with BRAF V600E variant assessed as phosphorylation of MEK at S218/222 residues at 0.3 uM pretreated with proteasome inhibitor, MG-132 for 2 hrs followed by incubation with compound for 10 hrs by Western blot analysis; assay type: cell-based
T1 sequence (P36507 whole entry, looked up): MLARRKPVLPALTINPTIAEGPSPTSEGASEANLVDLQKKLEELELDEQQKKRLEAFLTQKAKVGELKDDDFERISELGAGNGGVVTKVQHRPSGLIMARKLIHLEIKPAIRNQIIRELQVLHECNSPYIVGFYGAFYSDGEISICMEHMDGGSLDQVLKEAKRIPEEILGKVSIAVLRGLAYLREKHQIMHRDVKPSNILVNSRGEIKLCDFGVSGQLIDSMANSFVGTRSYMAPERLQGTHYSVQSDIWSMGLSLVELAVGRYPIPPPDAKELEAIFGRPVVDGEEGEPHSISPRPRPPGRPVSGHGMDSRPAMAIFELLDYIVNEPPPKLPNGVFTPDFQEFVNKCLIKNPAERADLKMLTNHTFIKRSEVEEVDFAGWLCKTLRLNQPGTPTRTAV
T1 sequence (P40337 whole entry, looked up): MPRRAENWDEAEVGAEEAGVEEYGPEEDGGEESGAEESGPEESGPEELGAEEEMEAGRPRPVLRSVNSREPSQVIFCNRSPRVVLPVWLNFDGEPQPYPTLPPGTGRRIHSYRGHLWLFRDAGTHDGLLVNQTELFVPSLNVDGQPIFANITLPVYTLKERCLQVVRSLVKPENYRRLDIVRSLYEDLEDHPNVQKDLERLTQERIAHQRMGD
T1 sequence (Q02750 whole entry, looked up): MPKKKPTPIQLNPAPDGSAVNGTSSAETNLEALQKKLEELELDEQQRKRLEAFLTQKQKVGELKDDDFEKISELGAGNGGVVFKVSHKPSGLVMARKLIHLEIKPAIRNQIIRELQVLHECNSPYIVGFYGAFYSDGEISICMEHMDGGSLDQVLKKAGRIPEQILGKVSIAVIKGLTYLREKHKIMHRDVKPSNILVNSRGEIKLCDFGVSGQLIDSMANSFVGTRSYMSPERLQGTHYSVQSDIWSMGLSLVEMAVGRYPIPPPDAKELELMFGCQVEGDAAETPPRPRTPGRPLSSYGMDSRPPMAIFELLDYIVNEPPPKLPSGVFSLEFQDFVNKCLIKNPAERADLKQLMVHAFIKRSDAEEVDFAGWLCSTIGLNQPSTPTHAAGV

[2] = biological target: T1, von Hippel-Lindau disease tumor suppressor/Dual specificity mitogen-activated protein kinase kinase 2/Dual specificity mitogen-activated protein kinase kinase 1 (Homo sapiens); experiment: Protac activity against VHL/MEK1/2 in human COLO205 cells harboring with BRAF V600E variant assessed as reduction in phosphorylation of MEK at S218/222 residues after 24 hrs by Western blot analysis; assay type: cell-based
[3] = biological target: T2, von Hippel-Lindau disease tumor suppressor/Leukocyte receptor cluster member 8 (Homo sapiens) (UniProt P40337+Q96PV6); experiment: Protac activity against VHL/LENG8 in human HT-29 cells harboring with BRAF V600E variant assessed as LENG8 protein level at 0.1 uM after 10 hrs by Western blot analysis; assay type: cell-based
T2 sequence (P40337 whole entry, looked up): as the sequence (P40337 whole entry, looked up) above
T2 sequence (Q96PV6 whole entry, looked up): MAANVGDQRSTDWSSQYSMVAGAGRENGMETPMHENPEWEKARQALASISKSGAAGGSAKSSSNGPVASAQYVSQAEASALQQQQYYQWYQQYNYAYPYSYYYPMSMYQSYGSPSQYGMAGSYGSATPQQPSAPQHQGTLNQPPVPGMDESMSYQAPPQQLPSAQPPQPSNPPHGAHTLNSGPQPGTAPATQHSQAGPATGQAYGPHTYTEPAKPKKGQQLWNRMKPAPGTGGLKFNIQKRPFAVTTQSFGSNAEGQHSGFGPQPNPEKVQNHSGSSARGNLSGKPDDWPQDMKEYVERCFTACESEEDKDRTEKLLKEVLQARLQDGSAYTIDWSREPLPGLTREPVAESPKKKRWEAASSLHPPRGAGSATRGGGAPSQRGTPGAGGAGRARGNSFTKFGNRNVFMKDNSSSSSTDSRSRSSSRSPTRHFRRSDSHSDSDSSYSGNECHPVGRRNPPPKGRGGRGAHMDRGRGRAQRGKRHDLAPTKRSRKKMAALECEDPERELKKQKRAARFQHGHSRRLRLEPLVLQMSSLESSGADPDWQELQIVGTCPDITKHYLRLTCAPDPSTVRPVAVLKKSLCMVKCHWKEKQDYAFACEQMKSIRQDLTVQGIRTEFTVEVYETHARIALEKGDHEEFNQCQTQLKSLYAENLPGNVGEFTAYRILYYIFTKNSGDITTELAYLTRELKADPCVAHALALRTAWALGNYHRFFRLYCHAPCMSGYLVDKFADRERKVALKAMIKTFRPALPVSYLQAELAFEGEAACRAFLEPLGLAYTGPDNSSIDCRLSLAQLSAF

[4] = biological target: T3, von Hippel-Lindau disease tumor suppressor/Dual specificity mitogen-activated protein kinase kinase 2 (Homo sapiens) (UniProt P36507+P40337); experiment: Protac activity against VHL/MEK2 in human SK-MEL-28 cells harboring with BRAF V600E variant assessed as degradation of MEK2 at 3 to 5 uM after 24 hrs by Western blot analysis; assay type: cell-based
T3 sequence (P36507 whole entry, looked up): as the sequence (P36507 whole entry, looked up) above
T3 sequence (P40337 whole entry, looked up): as the sequence (P40337 whole entry, looked up) above

[5] = biological target: von Hippel-Lindau disease tumor suppressor/Cullin-9 (Homo sapiens) (UniProt P40337+Q8IWT3); experiment: Protac activity against VHL/cullin9 in human HT-29 cells harboring with BRAF V600E variant assessed as cullin9 protein level at 0.1 uM after 10 hrs by Western blot analysis; assay type: cell-based
[6] = test system: COLO 205; experiment: Effect on total ERK protein expression in human COLO205 cells at 0.001 to 5 uM after 24 hrs by Western blot analysis; assay type: functional, cell-based
[7] = biological target: T4, von Hippel-Lindau disease tumor suppressor/Dual specificity mitogen-activated protein kinase kinase 1 (Homo sapiens) (UniProt Q02750+P40337); experiment: Protac activity against VHL/MEK1 in human HT-29 cells harboring with BRAF V600E variant assessed as degradation of MEK1 at 0.1 to 0.3 uM after 4 hrs by Western blot analysis; assay type: cell-based
T4 sequence (P40337 whole entry, looked up): as above
T4 sequence (Q02750 whole entry, looked up): as the sequence (Q02750 whole entry, looked up) above

[8] = biological target: T4, von Hippel-Lindau disease tumor suppressor/Dual specificity mitogen-activated protein kinase kinase 1 (Homo sapiens); experiment: Protac activity against VHL/MEK1 in human SK-MEL-28 cells harboring with BRAF V600E variant assessed as degradation of MEK1 by measuring MEK1 protein level at 0.3 uM pretreated with MEK1/2 inhibitor, PD0325901 for 2 hrs followed by incubation with compound for 10 hrs by Western blot analysis; assay type: cell-based
[9] = biological target: T3, von Hippel-Lindau disease tumor suppressor/Dual specificity mitogen-activated protein kinase kinase 2 (Homo sapiens); experiment: Protac activity against VHL/MEK2 in human HT-29 cells harboring with BRAF V600E variant assessed as degradation of MEK2 by measuring MEK2 protein level at 0.3 uM pretreated with VHL ligand, VH 032 for 2 hrs followed by incubation with compound for 10 hrs by Western blot analysis; assay type: cell-based
[10] = biological target: T4, von Hippel-Lindau disease tumor suppressor/Dual specificity mitogen-activated protein kinase kinase 1 (Homo sapiens); experiment: Protac activity against VHL/MEK1 in human UACC257 cells harboring with BRAF V600E variant assessed as degradation of MEK1 at 3 to 5 uM uM after 24 hrs by Western blot analysis; assay type: cell-based
[11] = test system: HT-29; experiment: Antiproliferative activity against human HT-29 cells assessed as reduction in cell growth after 3 days by MTT assay; assay type: functional
[12] = biological target: T1, von Hippel-Lindau disease tumor suppressor/Dual specificity mitogen-activated protein kinase kinase 2/Dual specificity mitogen-activated protein kinase kinase 1 (Homo sapiens); experiment: Protac activity against VHL/MEK1/2 in human SK-MEL-28 cells harboring with BRAF V600E variant assessed as phosphorylation of ERK at T202/Y204 residues at 0.3 uM pretreated with VHL ligand, VH 032 for 2 hrs followed by incubation with compound for 10 hrs by Western blot analysis; assay type: cell-based
[13] = biological target: T4, von Hippel-Lindau disease tumor suppressor/Dual specificity mitogen-activated protein kinase kinase 1 (Homo sapiens); experiment: Protac activity against VHL/MEK1 in human SK-MEL-28 cells harboring with BRAF V600E variant assessed as degradation of MEK1 by measuring MEK1 protein level at 0.3 uM pretreated with proteasome inhibitor, MG-132 for 2 hrs followed by incubation with compound for 10 hrs by Western blot analysis; assay type: cell-based
[14] = biological target: T1, von Hippel-Lindau disease tumor suppressor/Dual specificity mitogen-activated protein kinase kinase 2/Dual specificity mitogen-activated protein kinase kinase 1 (Homo sapiens); experiment: Protac activity against VHL/MEK1/2 in human COLO205 cells harboring with BRAF V600E variant assessed as reduction in phosphorylation of ERK at T202/Y204 residues after 24 hrs by Western blot analysis; assay type: cell-based
[15] = biological target: Dual specificity mitogen-activated protein kinase kinase 2 (Homo sapiens, UniProt P36507); experiment: Inhibition of recombinant full length human His-tagged MEK2 expressed in baculovirus expression system using ERK K52R dead variant as substrate preincubated for 20 mins followed by incubation with 33P-ATP for 2 hrs by hotspot kinase assay
Dual specificity mitogen-activated protein kinase kinase 2, sequence (P36507 whole entry): as the sequence (P36507 whole entry, looked up) above

[16] = biological target: T2, von Hippel-Lindau disease tumor suppressor/Leukocyte receptor cluster member 8 (Homo sapiens); experiment: Protac activity against VHL/LENG8 in human HT-29 cells harboring with BRAF V600E variant assessed as reduction in LENG8 protein level at 0.1 uM after 10 hrs by LC-MS based Volcano plot analysis; assay type: cell-based
[17] = biological target: T3, von Hippel-Lindau disease tumor suppressor/Dual specificity mitogen-activated protein kinase kinase 2 (Homo sapiens); experiment: Protac activity against VHL/MEK2 in human HT-29 cells harboring with BRAF V600E variant assessed as degradation of MEK2 by measuring MEK2 protein level at 0.3 uM pretreated with proteasome inhibitor, MG-132 for 2 hrs followed by incubation with compound for 10 hrs by Western blot analysis; assay type: cell-based
[18] = biological target: T3, von Hippel-Lindau disease tumor suppressor/Dual specificity mitogen-activated protein kinase kinase 2 (Homo sapiens); experiment: Protac activity against VHL/MEK2 in human SK-MEL-28 cells harboring with BRAF V600E variant assessed as degradation of MEK2 at 0.1 to 0.3 uM after 4 hrs by Western blot analysis; assay type: cell-based
[19] = biological target: T4, von Hippel-Lindau disease tumor suppressor/Dual specificity mitogen-activated protein kinase kinase 1 (Homo sapiens); experiment: Protac activity against VHL/MEK1 in human HT-29 cells harboring with BRAF V600E variant assessed as degradation of MEK1 at 3 to 5 uM after 24 hrs by Western blot analysis; assay type: cell-based
[20] = biological target: T4, von Hippel-Lindau disease tumor suppressor/Dual specificity mitogen-activated protein kinase kinase 1 (Homo sapiens); experiment: Protac activity against VHL/MEK1 in human SK-MEL-28 cells harboring with BRAF V600E variant assessed as degradation of MEK1 by measuring reduction in MEK1 protein level at 0.3 uM after 4 hrs by Western blot analysis relative to control; assay type: cell-based; parameters: scale not given: the % may be the effect or the level left
[21] = biological target: T4, von Hippel-Lindau disease tumor suppressor/Dual specificity mitogen-activated protein kinase kinase 1 (Homo sapiens); experiment: Protac activity against VHL/MEK1 in human SK-MEL-28 cells harboring with BRAF V600E variant assessed as degradation of MEK1 by measuring MEK1 protein level at 0.3 uM pretreated with VHL ligand, VH 032 for 2 hrs followed by incubation with compound for 10 hrs by Western blot analysis; assay type: cell-based
[22] = biological target: T4, von Hippel-Lindau disease tumor suppressor/Dual specificity mitogen-activated protein kinase kinase 1 (Homo sapiens); experiment: Protac activity against VHL/MEK1 in human HT-29 cells harboring with BRAF V600E variant assessed as degradation of MEK1 by measuring MEK1 protein level at 0.3 uM pretreated with MEK1/2 inhibitor, PD0325901 for 2 hrs followed by incubation with compound for 10 hrs by Western blot analysis; assay type: cell-based
[23] = biological target: T3, von Hippel-Lindau disease tumor suppressor/Dual specificity mitogen-activated protein kinase kinase 2 (Homo sapiens); experiment: (§1) Protac activity against VHL/MEK2 in human HT-29 cells harboring BRAF V600E variant assessed as degradation of MEK2 after 24 hrs by Western blot analysis; assay type: cell-based
[24] = biological target: von Hippel-Lindau disease tumor suppressor/Dual specificity mitogen-activated protein kinase kinase 2 (Homo sapiens, UniProt P36507+P40337, V600E); experiment: as §1; assay type: cell-based
von Hippel-Lindau disease tumor suppressor/Dual specificity mitogen-activated protein kinase kinase 2, sequence (P36507 whole entry, looked up, stated change not applied): as the sequence (P36507 whole entry, looked up) above
von Hippel-Lindau disease tumor suppressor/Dual specificity mitogen-activated protein kinase kinase 2, sequence (P40337 whole entry, looked up, stated change not applied): as the sequence (P40337 whole entry, looked up) above

[25] = biological target: T1, von Hippel-Lindau disease tumor suppressor/Dual specificity mitogen-activated protein kinase kinase 2/Dual specificity mitogen-activated protein kinase kinase 1 (Homo sapiens); experiment: Protac activity against VHL/MEK1/2 in human HT-29 cells harboring with BRAF V600E variant assessed as reduction in phosphorylation of ERK at T202/Y204 residues at 0.3 uM after 24 to 144 hrs by Western blot analysis; assay type: cell-based

In the case of `Cc1ncsc1-c1ccc([C@H](C)NC(=O)[C@@H]2C[C@@H](O)CN2C(=O)[C@@H](NC(=O)CCCCCCCCCCNCCCONC(=O)c2ccc(F)c(F)c2Nc2ccc(I)cc2F)C(C)(C)C)cc1`, the Activity [1] is reported as “inactive”, the Activity [2] is reported as “Dose-dependent effect” and the Activity [3] is reported as “inactive”. For the same compound, the Activity [4] was “Active”, the Activity [5] was “inactive” and the Activity [6] was “inactive”. For the same compound, the Activity [7] was “Active”, the Activity [8] was “inactive” and the Activity [9] was “inactive”. The Activity [10] was “Active”, the “growth inhibition (GI)” value [11] was “Dose-dependent effect” and the GI50 ([11]; HT-29, 72 h) was 0.13 µM. The Activity [12] was “inactive”, the Activity [13] was “inactive” and the Activity [14] was “Dose-dependent effect”. For the same compound, the IC50 [15] was 0.59 µM, the Activity [16] was “Active” and the Activity [17] was “inactive”. The Activity [18] was “Active”, the Activity [19] was “Active” and the Activity [20] was over 50%. For the same compound, the Activity [21] was “inactive”, the Activity [22] was “inactive” and the Activity [23] was “Dose-dependent effect”. The DC50 [24] was 0.017 µM and the Activity [25] was “Active”.
